Experimental data published in patent publication US7381722B2, “Tetracyclic amino and carboxamido compounds and methods of use thereof” (Inotek Pharmaceuticals Corporation, priority 2005, dated 2008).

Molecular target: T1, PARS (Mus musculus, UniProt P11103)
T1 construct: endogenous in cells; host or cells: Raw murine macrophages
Assay: Cell protection assay: PARS activity in peroxynitrite-treated Raw murine macrophages
Format: cell-based
Conditions: compound 15 min before peroxynitrite (750 μM) for 15 min, PARS activity by 3H-NAD incorporation, EC50 from dose-response curve
Protocol: Raw murine macrophages were treated with an illustrative Tetracyclic Amino Compound or Tetracyclic Carboxamido Compound for 15 minutes prior to the addition of peroxynitrite (750 μM) for a further 15 minutes. For the measurement of PARS activity, the media were removed and replaced with 0.5 ml HEPES (pH 7.5) containing 0.01% digitonin and ^3H-NAD (0.5 μCi ml^−1, final concentration of NAD^+ in buffer is 20 nM/L) for 20 minutes. The cells were then scraped from the wells and placed in Eppendorf tubes containing 200 μl of 50% (w/v) ice-cold trichloroacetic acid (TCA). The tubes were then placed at 4° C. After 4 hr the tubes were centrifuged at 1800 g for 10 minutes and the supernatant removed. The pellets were washed twice with 500 μl ice-cold 5% TCA. The pellets were solubilized in 250 μl NaOH (0.1 M) containing 2% SDS overnight at 37° C. and the PARS activity was then determined by measuring the radioactivity incorporated using a Wallac scintillation counter. The solubilized protein (250 μl) was mixed with 5 ml of scintillant (ScintiSafe Plus, Fisher Scientific) before being counted for 10 minutes. The EC50 value was calculated from a dose-response curve.

T1 sequence (P11103 whole entry): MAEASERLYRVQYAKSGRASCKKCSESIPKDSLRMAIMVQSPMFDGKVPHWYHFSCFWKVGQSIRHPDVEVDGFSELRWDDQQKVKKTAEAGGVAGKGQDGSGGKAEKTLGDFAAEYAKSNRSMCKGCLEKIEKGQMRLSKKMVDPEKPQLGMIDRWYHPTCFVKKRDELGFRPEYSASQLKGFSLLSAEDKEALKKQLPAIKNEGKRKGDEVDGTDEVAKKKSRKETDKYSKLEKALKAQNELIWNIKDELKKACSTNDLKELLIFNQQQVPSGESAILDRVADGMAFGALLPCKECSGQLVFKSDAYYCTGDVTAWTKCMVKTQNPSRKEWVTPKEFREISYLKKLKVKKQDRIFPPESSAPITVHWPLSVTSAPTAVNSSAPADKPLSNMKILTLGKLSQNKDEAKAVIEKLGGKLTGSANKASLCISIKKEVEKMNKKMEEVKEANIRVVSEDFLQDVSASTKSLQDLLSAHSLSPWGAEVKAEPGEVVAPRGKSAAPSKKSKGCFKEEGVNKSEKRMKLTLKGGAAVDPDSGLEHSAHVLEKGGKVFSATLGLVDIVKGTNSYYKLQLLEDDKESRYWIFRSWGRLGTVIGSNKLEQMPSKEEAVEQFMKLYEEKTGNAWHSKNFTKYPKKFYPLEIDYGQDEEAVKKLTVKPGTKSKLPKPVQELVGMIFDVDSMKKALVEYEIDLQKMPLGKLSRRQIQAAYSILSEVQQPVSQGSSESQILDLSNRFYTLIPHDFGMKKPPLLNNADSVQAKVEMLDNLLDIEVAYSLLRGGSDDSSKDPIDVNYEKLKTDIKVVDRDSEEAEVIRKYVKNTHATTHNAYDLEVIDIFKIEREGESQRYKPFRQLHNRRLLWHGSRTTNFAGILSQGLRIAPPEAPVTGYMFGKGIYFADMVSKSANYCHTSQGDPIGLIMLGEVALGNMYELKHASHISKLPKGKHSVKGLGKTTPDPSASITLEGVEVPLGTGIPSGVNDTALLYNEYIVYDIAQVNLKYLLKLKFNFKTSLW

Compound	EC50 [nM]
O=C(NCCN1CCOCC1)c1cccc2c1Cc1c-2[nH]c(=O)c2ccccc12 [Compound 16a]	> 1500
O=C(NCCCN1CCOCC1)c1cccc2c1Cc1c-2[nH]c(=O)c2ccccc12 [Compound 16b]	> 1500
CN(C)CCCNC(=O)c1cccc2c1Cc1c-2[nH]c(=O)c2ccccc12 [Compound 15b]	> 1500
CN(C)CCNC(=O)c1cccc2c1Cc1c-2[nH]c(=O)c2ccccc12 [Compound 15a]	> 1500

Molecules with a lower EC50, results first:

EC50 [nM]	Compound
1100	O=C(NCCN1CCOCC1)c1ccc2c(c1)Cc1c-2[nH]c(=O)c2ccccc12 [Compound 14a]
900	CN(C)CCCNC(=O)c1ccc2c(c1)Cc1c-2[nH]c(=O)c2ccccc12 [Compound 13b]
1100	O=C(NCCCN1CCOCC1)c1ccc2c(c1)Cc1c-2[nH]c(=O)c2ccccc12 [Compound 14b]
